Tests used:
MDM2 = molecular target: T1, MDM2 (Homo sapiens, UniProt Q00987); assay: Inhibition test of MDM2-P53 (GST-MDM2, Biotin-P53, Anti-GST-Tb, SA-XL665); assay type: binding; details: for inhibitory effect on MDM2 compared with positive control compound HDM201: labels are Example numbers, the compounds with S-configuration are meant
T1 construct: made in house
Procedure, shortened: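 HTRF-type assay using 4 nM GST-MDM2 (final), Biotin-P53, SA-XL665 and anti-GST-Tb in PBS with 0.1% BSA, 5 mM DTT and 1 mM AEBSF. Compounds in 5-fold serial dilutions over twelve points; incubation 90 min at 25° C with shaking before plate-reader read-out.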

[1] = test system: human osteosarcoma cell line SJSA-1; assay: Inhibition of proliferation of human osteosarcoma cell line SJSA-1 (DAPI staining, In Cell Analyzer); details: for IC50: Homo sapiens, SJSA-1, 72 h, read-out: IC50 (nM), inhibitory activity on proliferation of human osteosarcoma cell line SJSA-1, SJSA-1, incubated 72 h; for inhibitory effect on human osteosarcoma cell line SJSA-1 compared with positive control compound HDM201: labels are Example numbers, the compounds with S-configuration are meant

T1 sequence (Q00987 whole entry): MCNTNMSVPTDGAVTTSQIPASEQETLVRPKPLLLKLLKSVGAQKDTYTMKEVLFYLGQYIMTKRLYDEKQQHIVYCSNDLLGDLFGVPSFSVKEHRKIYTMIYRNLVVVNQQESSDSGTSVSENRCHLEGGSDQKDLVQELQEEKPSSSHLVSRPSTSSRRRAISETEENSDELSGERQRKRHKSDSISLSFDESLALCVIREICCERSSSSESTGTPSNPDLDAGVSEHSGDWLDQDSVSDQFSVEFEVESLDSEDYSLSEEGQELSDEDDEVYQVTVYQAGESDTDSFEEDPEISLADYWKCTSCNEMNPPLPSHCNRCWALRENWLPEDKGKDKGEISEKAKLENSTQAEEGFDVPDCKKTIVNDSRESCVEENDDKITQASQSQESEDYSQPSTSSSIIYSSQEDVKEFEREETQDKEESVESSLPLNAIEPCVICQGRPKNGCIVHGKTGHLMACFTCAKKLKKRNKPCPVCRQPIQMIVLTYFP

| SMILES | IC50 (MDM2) [nM] | IC50 [1] [nM] | inhibitory effect on MDM2 compared with positive control compound HDM201 (MDM2) | inhibitory effect on human osteosarcoma cell line SJSA-1 compared with positive control compound HDM201 [1] |
| --- | --- | --- | --- | --- |
| COc1cc(C)ccc1-c1nc2c(n1C(C)C)[C@@]1(C(=O)Nc3cc(Cl)ccc31)N(c1cc(Cl)ccc1C)C2=O [Example S-24, (S)-6-chloro-5′-(5-chloro-2-methylphenyl)-3′-isopropyl-2′-(2-methoxy-4-methylphenyl)-3′H-spiro[dihydroindole-3,4′-pyrrolo[3,4-d]imidazole]-2,6′(5′H)-dione] | 4.4 | 4.17 | – | – |
| COc1cc(N(C)C)ccc1-c1nc2c(n1C(C)C)[C@@]1(C(=O)Nc3cc(Cl)ccc31)N(c1cccc(Cl)c1)C2=O [Example S-104, (S)-6-chloro-5′-(3-chlorophenyl)-2′-(4-(dimethylamino)-2-methoxyphenyl)-3′-isopropyl-3′H-spiro[dihydroindole-3,4′-pyrrolo[3,4-d]imidazole]-2,6′(5′H)-dione] | 2.26 | 266 | – | – |
| Cc1ccc(Cl)cc1N1C(=O)c2nc(-c3ccccc3OC(F)(F)F)n(C(C)C)c2[C@@]12C(=O)Nc1cc(Cl)ccc12 [Example S-31, (S)-6-chloro-5′-(5-chloro-2-methylphenyl)-3′-isopropyl-2′-(2-(trifluoromethoxy)phenyl)-3′H-spiro[dihydroindole-3,4′-pyrrolo[3,4-d]imidazole]-2,6′(5′H)-dione] | 60.1 | 1580 | – | – |
| CCOc1cc(OC)c(-c2nc3c(n2C(C)C)C2(C(=O)Nc4cc(Cl)ccc42)N(c2cccc(Cl)c2)C3=O)cn1 (stereo not drawn) [Example 102, 6-chloro-5′-(3-chlorophenyl)-2′-(6-ethoxy-4-methoxypyridin-3-yl)-3′-isopropyl-3′H-spiro[dihydroindole-3,4′-pyrrolo[3,4-d]imidazole]-2,6′(5′H)-dione] | – | – | better | better |
| COc1cc(C)ccc1-c1nc2c(n1C(C)C)[C@@]1(C(=O)Nc3cc(Cl)ccc31)N(c1cccc(Cl)c1)C2=O [Example S-109, (S)-6-chloro-5′-(3-chlorophenyl)-3′-isopropyl-2′-(2-methoxy-4-methylphenyl)-3′H-spiro[dihydroindole-3,4′-pyrrolo[3,4-d]imidazole]-2,6′(5′H)-dione] | 2.34 | 54.6 | – | – |
| COc1ccc(CC(=O)N(C)C)cc1-c1nc2c(n1C(C)C)[C@]1(C(=O)Nc3cc(Cl)ccc31)N(c1cc(Cl)ccc1C)C2=O [Example R-70, (R)-2-(3-(6-chloro-5′-(5-chloro-2-methylphenyl)-3′-isopropyl-2,6′-dioxo-5′,6′-dihydro-3′H-spiro[dihydroindole-3,4′-pyrrolo[3,4-d]imidazole]-2′-yl)-4-methoxyphenyl)-N,N-dimethylacetamide] | 111 | 4210 | – | – |
| COc1cc(N)c(F)cc1-c1nc2c(n1C(C)C)[C@@]1(C(=O)Nc3cc(Cl)ccc31)N(c1cc(Cl)ccc1C)C2=O [Example S-75, (S)-2′-(4-amino-5-fluoro-2-methoxyphenyl)-6-chloro-5′-(5-chloro-2-methylphenyl)-3′-isopropyl-3′H-spiro[dihydroindole-3,4′-pyrrolo[3,4-d]imidazole]-2,6′(5′H)-dione] | 0.97 | 9.84 | – | – |
| CCOc1cc(OC)c(-c2nc3c(n2C(C)C)[C@]2(C(=O)Nc4cc(Cl)ccc42)N(c2cc(Cl)ccc2C)C3=O)cn1 [Example R-72, (R)-6-chloro-5′-(5-chloro-2-methylphenyl)-2′-(6-ethoxy-4-methoxypyridin-3-yl)-3′-isopropyl-3′H-spiro[dihydroindole-3,4′-pyrrolo[3,4-d]imidazole]-2,6′(5′H)-dione] | 214 | 3480 | – | – |
| COc1cc(OCC(F)F)ncc1-c1nc2c(n1C(C)C)[C@@]1(C(=O)Nc3cc(Cl)ccc31)N(c1cc(Cl)ccc1C)C2=O [Example S-153, (S)-6-chloro-5′-(5-chloro-2-methylphenyl)-2′-(6-(2,2-difluoroethoxy)-4-methoxypyridin-3-yl)-3′-isopropyl-3′H-spiro[dihydroindole-3,4′-pyrrolo[3,4-d]imidazole]-2,6′(5′H)-dione] | 0.49 | 22 | – | – |
| COc1cc(OC)c(-c2nc3c(n2C(C)C)C2(C(=O)Nc4cc(Cl)ccc42)N(c2cc(Cl)cnc2C)C3=O)cn1 (stereo not drawn) [Example 131, 6-chloro-5′-(5-chloro-2-methylpyridin-3-yl)-2′-(4,6-dimethoxypyridin-3-yl)-3′-isopropyl-3′H-spiro[dihydroindole-3,4′-pyrrolo[3,4-d]imidazole]-2,6′(5′H)-dione] | – | – | better | better |
| COc1nc(C(C)C)ncc1-c1nc2c(n1C(C)C)[C@@]1(C(=O)Nc3cc(Cl)ccc31)N(c1cc(Cl)ccc1C)C2=O [Example S-172, (S)-6-chloro-5′-(5-chloro-2-methylphenyl)-3′-isopropyl-2′-(2-isopropyl-4-methoxypyrimidin-5-yl)-3′H-spiro[dihydroindole-3,4′-pyrrolo[3,4-d]imidazole]-2,6′(5′H)-dione] | 4.15 | 53.3 | – | – |
| COc1cc(OC(C)C)ncc1-c1nc2c(n1C(C)C)C1(C(=O)Nc3cc(Cl)ccc31)N(c1cc(Cl)ccc1C)C2=O (stereo not drawn) [Example 69, 6-chloro-5′-(5-chloro-2-methylphenyl)-2′-(6-isopropoxy-4-methoxypyridin-3-yl)-3′-isopropyl-3′H-spiro[dihydroindole-3,4′-pyrrolo[3,4-d]imidazole]-2,6′(5′H)-dione] | – | – | better | better |
| COc1nc(N(C)C)ccc1-c1nc2c(n1C(C)C)[C@@]1(C(=O)Nc3cc(Cl)ccc31)N(c1cc(Cl)ccc1C)C2=O [Example S-157, (S)-6-chloro-5′-(5-chloro-2-methylphenyl)-2′-(6-(dimethylamino)-2-methoxypyridin-3-yl)-3′-isopropyl-3′H-spiro[dihydroindole-3,4′-pyrrolo[3,4-d]imidazole]-2,6′(5′H)-dione] | 3.81 | 16.7 | – | – |
| COc1ccccc1-c1nc2c(n1C(C)C)[C@@]1(C(=O)Nc3cc(Cl)ccc31)N(c1cc(Cl)ccc1C)C2=O [Example S-5, (S)-6-chloro-5′-(5-chloro-2-methylphenyl)-3′-isopropyl-2′-(2-methoxyphenyl)-3′H-spiro[dihydroindole-3,4′-pyrrolo[3,4-d]imidazole]-2,6′(5′H)-dione] | 3.22 | 25.4 | – | – |
| COc1ccncc1-c1nc2c(n1C(C)C)[C@]1(C(=O)Nc3cc(Cl)ccc31)N(c1cc(Cl)ccc1C)C2=O [Example R-18, (R)-6-chloro-5′-(5-chloro-2-methylphenyl)-3′-isopropyl-2′-(4-methoxypyridin-3-yl)-3′H-spiro[dihydroindole-3,4′-pyrrolo[3,4-d]imidazole]-2,6′(5′H)-dione] | 158 | 1620 | – | – |
| CCc1cc(-c2nc3c(n2C(C)C)C2(C(=O)Nc4cc(Cl)ccc42)N(c2cc(Cl)ccc2C)C3=O)c(OC)cc1N(C)C (stereo not drawn) [Example 125, 6-chloro-5′-(5-chloro-2-methylphenyl)-2′-(4-(dimethylamino)-5-ethyl-2-methoxyphenyl)-3′-isopropyl-3′H-spiro[dihydroindole-3,4′-pyrrolo[3,4-d]imidazole]-2,6′(5′H)-dione] | 20.8 | 60.3 | – | – |
| COc1cc(C2CC2)ncc1-c1nc2c(n1C(C)C)C1(C(=O)Nc3cc(Cl)ccc31)N(c1cc(Cl)cnc1C)C2=O (stereo not drawn) [Example 143, 6-chloro-5′-(5-chloro-2-methylpyridin-3-yl)-2′-(6-cyclopropyl-4-methoxypyridin-3-yl)-3′-isopropyl-3′H-spiro[dihydroindole-3,4′-pyrrolo[3,4-d]imidazole]-2,6′(5′H)-dione] | – | – | better | better |
| CCc1ccc(-c2nc3c(n2C(C)C)[C@@]2(C(=O)Nc4cc(Cl)ccc42)N(c2cccc(Cl)c2)C3=O)c(OC)c1 [Example S-107, (S)-6-chloro-5′-(3-chlorophenyl)-2′-(4-ethyl-2-methoxyphenyl)-3′-isopropyl-3′H-spiro[dihydroindole-3,4′-pyrrolo[3,4-d]imidazole]-2,6′(5′H)-dione] | 4.55 | 115 | – | – |
| COc1cc(OCCF)ncc1-c1nc2c(n1C(C)C)[C@]1(C(=O)Nc3cc(Cl)ccc31)N(c1cccc(Cl)c1)C2=O [Example R-177, (R)-6-chloro-5′-(3-chlorophenyl)-2′-(6-(2-fluoroethoxy)-4-methoxypyridin-3-yl)-3′-isopropyl-3′H-spiro[dihydroindole-3,4′-pyrrolo[3,4-d]imidazole]-2,6′(5′H)-dione] | 109 | 4250 | – | – |
| COc1cc(C2CC2)ncc1-c1nc2c(n1C(C)C)C1(C(=O)Nc3cc(Cl)ccc31)N(c1cc(F)cc(Cl)c1)C2=O (stereo not drawn) [Example 176, 6-chloro-5′-(3-chloro-5-fluorophenyl)-2′-(6-cyclopropyl-4-methoxypyridin-3-yl)-3′-isopropyl-3′H-spiro[dihydroindole-3,4′-pyrrolo[3,4-d]imidazole]-2,6′(5′H)-dione] | – | – | better | better |
| CNC(=O)c1ccc(OC)c(-c2nc3c(n2C(C)C)[C@@]2(C(=O)Nc4cc(Cl)ccc42)N(c2cc(Cl)ccc2C)C3=O)c1 [Example S-21, (S)-3-(6-chloro-5′-(5-chloro-2-methylphenyl)-3′-isopropyl-2,6′-dioxo-5′,6′-dihydro-3′H-spiro[dihydroindole-3,4′-pyrrolo[3,4-d]imidazole]-2′-yl)-4-methoxy-N-methylbenzamide] | 1.34 | 62.2 | – | – |

Reference: patent US11339171B2, “MDM2 inhibitors” (Gan & Lee Pharmaceuticals, priority 2017, dated 2022)
